Results as given in patent US8604034B2, “Substituted imidazo[1,2-α]pyrrolo[1,2-d]pyrazines for treating respiratory syncytial virus (RSV) infections” (Biota Scientific Management Pty Ltd., priority 2010, dated 2013).
Structures can show the parent of a compound that is named as a salt. Where two headings read alike, the source gives them in different places. Each block holds one compound with its values, some of them ahead of it.

Test system: RSV A2
Experiment: RSV antiviral cytopathic effect (CPE) assay
Format: cell-based
Conditions: human respiratory syncytial virus, HEp-2, 120 h, HEp2 cells infected with RSV A2 (moi ~0.01), 5 days, MTT readout
Outline: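 HEp2 cells infected with RSV A2 (moi ~0.01) and incubated with serially diluted compound for 5 days at 37 °C. CPE read by MTT metabolism (absorbance 540/650 nm); uninfected cells gave cytotoxicity. EC50 and CC50 obtained by non-linear regression.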

[1] = read-out: Activity Range (RSV A2 EC50)
[2] = mean EC50, read-out: RSV A2 EC50

SMILES: Cc1nocc1C(=O)N1CCN2C(=O)c3cccn3CC12c1ccc(=O)n(C)c1 (stereo not shown) [Compound 143, 1-[(3-methyl-1,2-oxazol-4-yl)carbonyl]-10a-(1-methyl-6-oxo-1,6-dihydropyridin-3-yl)-2,3,10,10a-tetrahydro-1H,5H-imidazo[1,2-a]pyrrolo[1,2-d]pyrazin-5-one]
- EC50 [1]: 500 to 10000 nM
- EC50 [2]: 750 nM

SMILES: COc1ccc(C23Cn4cc(-c5nnnn5C)cc4C(=O)N2CCN3C(=O)c2conc2C)cc1 (stereo not shown) [Compound 145, 10a-(4-methoxyphenyl)-1-[(3-methyl-1,2-oxazol-4-yl)carbonyl]-7-(1-methyl-1H-tetrazol-5-yl)-2,3,10,10a-tetrahydro-1H,5H-imidazo[1,2-a]pyrrolo[1,2-d]pyrazin-5-one]
- EC50 [1]: 500 to 10000 nM
- EC50 [2]: 3700 nM

SMILES: COc1ccc(C23Cn4cc(-c5nnn(C)n5)cc4C(=O)N2CCN3C(=O)c2conc2C)cc1 (stereo not shown) [Compound 146, 10a-(4-methoxyphenyl)-1-[(3-methyl-1,2-oxazol-4-yl)carbonyl]-7-(2-methyl-2H-tetrazol-5-yl)-2,3,10,10a-tetrahydro-1H,5H-imidazo[1,2-a]pyrrolo[1,2-d]pyrazin-5-one]
- EC50 [1]: < 49 nM
- EC50 [2]: 46 nM

SMILES: Cc1nocc1C(=O)N1CCN2C(=O)c3cccc(=O)n3CC12c1ccc(F)cc1 (stereo not shown) [Compound 148]
- EC50 [1]: < 49 nM
- EC50 [2]: 38 nM

SMILES: COc1ccc(C23Cn4c(cccc4=O)C(=O)N2CCN3C(=O)c2conc2C)cc1 (stereo not shown) [Compound 149]
- EC50 [1]: 100 to 499 nM
- EC50 [2]: 130 nM

SMILES: Cc1ccc(C23Cn4c(C)ccc4C(=O)N2CCN3C(=O)c2conc2C)cn1 (stereo not shown) [Compound 151]
- EC50 [1]: < 49 nM
- EC50 [2]: 8.7 nM

SMILES: Cc1nocc1C(=O)N1CCN2C(=O)c3ccc(C)n3CC12c1ccc(F)cc1 (stereo not shown) [Compound 154, 10a-(4-fluorophenyl)-8-methyl-1-[(3-methyl-1,2-oxazol-4-yl)carbonyl]-2,3,10,10a-tetrahydro-1H,5H-imidazo[1,2-d]pyrrolo[1,2-d]pyrazin-5-one]
- EC50 [1]: < 49 nM
- EC50 [2]: 2.3 nM

SMILES: COc1ccc(C23Cn4nccc4C(=O)N2CCN3C(=O)c2conc2C)cc1 (stereo not shown) [Compound 157]
- EC50 [1]: 100 to 499 nM
- EC50 [2]: 360 nM

Other lines, results leading:

- EC50 [1]: 50 to 99 nM
- EC50 [2]: 66 nM
SMILES: Cc1ccc(C23Cn4nc(-c5ccccn5)cc4C(=O)N2CCN3C(=O)c2conc2C)cc1 (stereo not shown) [Compound 139]

- EC50 [1]: 500 to 10000 nM
- EC50 [2]: 550 nM
SMILES: Cc1nocc1C(=O)N1CCN2C(=O)c3cc(-c4cccn4C)nn3CC12c1ccc(Cl)cc1 (stereo not shown) [Compound 140]

- EC50 [1]: < 49 nM
- EC50 [2]: 39 nM
SMILES: Cc1nocc1C(=O)N1CCN2C(=O)c3cc(-c4cccs4)nn3CC12c1ccc(Cl)cc1 (stereo not shown) [Compound 141]

- EC50 [1]: 500 to 10000 nM
- EC50 [2]: 6700 nM
SMILES: Cc1nocc1C(=O)N1CCN2C(=O)c3cccn3CC12c1ccc(O)nc1 (stereo not shown) [Compound 142, 10a-(6-hydroxypyridin-3-yl)-1-[(3-methyl-1,2-oxazol-4-yl)carbonyl]-2,3,10,10a-tetrahydro-1H,5H-imidazo[1,2-a]pyrrolo[1,2-d]pyrazin-5-one]

- EC50 [1]: 50 to 99 nM
- EC50 [2]: 79 nM
SMILES: Cc1nocc1C(=O)N1CCN2C(=O)c3cc(-c4cnn(C)c4)cn3CC12c1ccc(CO)cc1 (stereo not shown) [Compound 144]

- EC50 [1]: 100 to 499 nM
- EC50 [2]: 390 nM
SMILES: COc1ccc(C23Cn4cc(CN)cc4C(=O)N2CCN3C(=O)c2conc2C)cc1 (stereo not shown) [Compound 147, 7-(aminomethyl)-10a-(4-methoxyphenyl)-1-[(3-methyl-1,2-oxazol-4-yl)carbonyl]-2,3,10,10a-tetrahydro-1H,5H-imidazo[1,2-a]pyrrolo[1,2-d]pyrazin-5-one; trifluoroacetate salt]

- EC50 [1]: < 49 nM
- EC50 [2]: 11 nM
SMILES: Cc1ccc(C23Cn4c(cccc4=O)C(=O)N2CCN3C(=O)c2conc2C)cc1 (stereo not shown) [Compound 150]

- EC50 [1]: < 49 nM
- EC50 [2]: 5.8 nM
SMILES: COc1ccc(C23Cn4c(C)ccc4C(=O)N2CCN3C(=O)c2conc2C)cn1 (stereo not shown) [Compound 152]

- EC50 [1]: < 49 nM
- EC50 [2]: 6.2 nM
SMILES: Cc1nocc1C(=O)N1CCN2C(=O)c3ccc(C)n3CC12c1ccc(CO)cc1 (stereo not shown) [Compound 153]
